Values after ≈ are worked out from the molar mass of the structure shown. Counter-ions that a name gives are not always drawn.
Legend:
strain P11 [1] = test: Trace metals elimination (0x) and addition (10x) in CO medium; format: cell-based, Clostridium ragsdalei; settings: for Acetate production on elimination of the metal / CO metabolism on elimination of the metal / Increase in solvent to acid ratio on elimination of the metal: 0x metal in COM; for CO metabolism at increased level of the metal: 10x metal in COM, especially after a 48 hour feeding
Method: Bacterial Strain and Cultivation Media. Clostridial strain P11 was used throughout the study. […] The growth temperature was 37° C. […] Analytical methods. […] Milton Roy) in aluminum seal tubes (Balch & Wolfe, 1976). […] Hydrogen ion concentration was measured by electrode. Trace metals. […] Triplicate tubes of unamended (1×) and amended (0× and 10×) media were inoculated with strain P11 where each of these individual trace metals were added to or eliminated from the COM at 10× and 0× the original metal concentration. The cultures were fed every 48 hours with CO. This was also completed in duplicate in 160 mL serum bottles to simulate small scale batch conditions. Stock solutions were prepared for each of the above metals and added during the media preparation before boiling and degassing. […] In order to adapt cells to the higher concentrations of metals, at least 2 transfers were made for each set-up. This experiment was performed in triplicate and growth was measured over 7 days after which pH and ethanol concentration analyses were completed.

[2] = tested on: Clostridium ragsdalei strain P11; test: Growth of strain P11 on organic and gaseous substrates as sole carbon and energy sources; format: cell-based; settings: for Substrate utilization, C. ragsdalei: strain P11, growth on substrate as sole carbon and energy source, final OD600
Method: (§1) Except for the deletion of NaHCO3 and an initial pH 6.3, growth on organic and gaseous substrates was performed as previously described (Tanner et. al., 1993). Resazurin (1 mg/L) was used as the redox indicator. Purified agar was added to the medium at a concentration of 2% for colony morphology description (Table 5). Heat labile substrates were filter sterilized (not autoclaved) and added from sterile stock solutions to a final concentration of 5 g/L before inoculation. The optimum temperature and pH (initial pH) was determined in medium containing fructose as the substrate. For determination of the optimum pH, media was buffered with HOMOPIPES (homopiperazine-N,N′-bis-2-[ethanesulfonic acid] (Research Organics, Cleveland, Ohio), MES (2-[N-morpholino]ethanesulfonic acid), or TES (N-tris [hydroxymethyl]methyl-2-aminoethanesulfonic acid) at (1.0 g/L). A 0.1 ml (˜2%) inoculum of fructose-grown cells was used to initiate growth. All media components used in these experiments were obtained from Sigma unless otherwise noted (Sigma Chemical Co., St. Louis, Mo.).
(§2) Analytical methods. […] For the substrate malate, utilization was analyzed by HPLC (“high-performance liquid chromatography”) equipped with a UV detector set at 214 nm using a Alltech, Prevail Organic Acid column (4.6×150 mm, 5 μm; Alltech, Deerfield, Mich.) with a mobile phase of 25 mM KH2PO4, pH 2.5 and 10% (v/v) methanol.

strain P11 [3] = test: microbe, parasite or virus in culture
Method: (§3) Bacterial Strain and Cultivation Media. Clostridial strain P11 was used throughout the study. Carbon monoxide medium (COM) was used to cultivate and maintain the culture. The growth temperature was 37° C. COM is an undefined buffered medium initially pressurized to 10 psi (70 kPa) with N2/CO2 and then autoclaved for 15 minutes at 121° C. The medium contained per liter of distilled water: 25 ml mineral solution (Table 1), 10 ml trace metals solution (Table 2, 10 ml vitamin solution (Table 3), 1.0 g of yeast extract, 10 g of MES (2-[N-morpholino]ethanesulfonic acid), 0.001 g resazurin, 4.0 g cysteine.HCl, and 4.0 Na2S.9H2O; the initial pH of this medium was 6.1-6.3. The medium was prepared using strict anaerobic technique (Balch & Wolfe, 1976). Carbon monoxide was the sole substrate provided at 210 kPa (30 psi). Unless otherwise noted all growth experiments were conducted under a pressure of 30 psi with CO as the sole or primary substrate and were incubated horizontally to maximize gas diffusion into the medium. Standard inoculum size was about 2% (v/v) transferred from a stock culture that was growing in mid to late exponential phase, unless otherwise noted.
(§4) Analytical methods. Growth was measured spectrophotometrically at 600 nm (Spectronic 20D; Milton Roy) in aluminum seal tubes (Balch & Wolfe, 1976). Acetate and ethanol were measured simultaneously by a gas chromatograph (GC) equipped with a flame ionization detector (FID) on a Varian 3400 equipped with a 2 m steel column packed with an 80/120 Carbopak B-DA/4% carbowax resin 20M (Supelco, Bellfonte, Pa.). The column, injector, and detector temperature were 155, 200, and 200° C. respectively. Helium was the carrier gas and the flow rate was set at 30 ml min^−1. Hydrogen ion concentration was measured by electrode.
Ethanol tolerance. The effect of ethanol on CO metabolism and solvent production was investigated with strain P11. The initial maximum concentration at which strain P11 could survive was determined during the course of these studies. […] Liquid samples (1.0 mL) were extracted once the cells remained at stationary phase and stored frozen (−20° C.) until analyzed by GC and HPLC. After the maximum ethanol concentration for cell survival was determined semi-continuous batch culture experiments were conducted using 500 mL serum bottles containing between 100-200 mL of COM containing different concentrations of ethanol (20, 30, 40, and 50 g/L) to adapt strain P11 to high solvent conditions. The amended COM with ethanol was prepared by adding filter sterilized ethanol to pre-sterilized Balch tubes, and then purging with N/CO2 to remove oxygen. After the media was sterilized, the ethanol was then added to the appropriate concentrations. These bottles were inoculated with the P11 cells from the semi-continuous batch cultures that were already established above. Growth and pH were measured periodically. A portion of the medium extracted for those measurements was taken for analyses of ethanol and acetate concentrations.

strain P11 [4] = test: Metabolic inhibitor studies (FA/TFA) in CO medium; format: cell-based, Clostridium ragsdalei; settings: for Ethanol production compared to the control strains: P11 in the presence of the inhibitor, identical conditions
Method: as §3, §4
Metabolic Inhibitor Studies. Filter sterilized anaerobic stock solutions of fluoroacetate (FA) and trifluoroacetate (TFA) (Sigma Chemical Co.) were prepared to final concentrations of 4.5M. Before preparation, the FA and TFA powders were allowed to sit overnight in small beakers in the anaerobic chamber to allow any trapped oxygen to diffuse from the powder. […] The inhibitors were usually added to the medium one day prior to inoculating with P11 to ensure anaerobicity was maintained. All additions were made anaerobically by syringe. During this study growth was measured periodically by spectroscopy. Toward the end of resting cell phase, liquid samples (1 mL) were taken and stored frozen (−20° C.) until analyzed by GC and HPLC.

thermophilic clostridium = settings: cited from earlier work
[5] = tested on: Clostridium ljungdahlii strain PETC; test: Growth of reference strain PETC on substrates as sole carbon and energy sources; format: cell-based; settings: strain PETC; growth on substrate as sole carbon and energy source; final OD600
Source text: Organisms. Clostridium ljundahlii strain PETC was obtained from a fructose stock culture maintained by Dr. Ralph S. Tanner and was used as the reference control strain. Strain P11 was obtained from an anaerobic enrichment inoculated with fresh water sediment from the Duck Pond at the University of Oklahoma by a procedure described previously (Bryant, 1972) under an atmosphere of CO:N2:CO2 (75:15:10) and an initial pH of 6.0. The carbon monoxide oxidizing clostridium described within was named Clostridium ragsdalei. This bacterium was designated strain P11 and deposited with the American Type Culture Collection as strain ATCC BAA-622.
as §1, §2

[6] = iron increased tenfold compared to standard medium

[Cu] [Cu, copper]
Acetate production on elimination of the metal (strain P11 [1]): decreased acetate production | CO metabolism on elimination of the metal (strain P11 [1]): limited CO metabolism | CO metabolism at increased level of the metal (strain P11 [1]): stimulated CO metabolism

CCO [Ethanol]
Growth with substrate ([2]; Clostridium ragsdalei, malate and formate examined at pH 5.0-6.5): chemoorganotrophic growth was observed | MIC (strain P11 [3]; Clostridium ragsdalei, P11, read-out: Minimum inhibitory concentration): 35 mg/mL (≈ 760 mM) | Growth at the 50 g/L ethanol concentration (strain P11 [3]; adapted semi-continuous batch culture): ≤ 0.55 OD units | Growth relative to the unamended control without ethanol (strain P11 [3]; all ethanol concentrations, 15-35 g/L): Growth was retarded | Ethanol concentration at which the adapted culture functions fully (strain P11 [3]; culture adapted to ethanol): 50 grams per liter | Highest ethanol concentration at which the adapted culture was established (strain P11 [3]; semi-continuous batch culture, stepwise adaptation from 20 g/L): 50 g/L | Ethanol concentration in which P11 remains viable and will grow (strain P11 [3]; statement in the description): at least 60 g/L | Ethanol concentration initially tolerated (strain P11 [3]; strain P11, not adapted): up to 30 g/L | Ethanol concentration that inhibited strain P11 (strain P11 [3]; upon initial isolation): 30 grams per liter

O=C(O)CF [FA, fluoroacetate]
Decrease of acetate production (strain P11 [4]; 30 mM FA and above): nearly ninety percent | Decrease of ethanol production (strain P11 [4]; 30 mM FA and above): fifty | Decrease of growth yield (strain P11 [4]; 30 mM FA and above): forty percent | Increase of ethanol to acetate ratio (strain P11 [4]; 30 mM FA and above): eighty percent | Growth yield (OD) or end products relative to the P11 control (strain P11 [4]; COM containing 20 mM FA): no significant differences | MIC (strain P11 [4]; Clostridium ragsdalei, strain P11 in COM, CO substrate, read-out: MIC (minimum inhibitory concentration)): 100 mM (≈ 7800 µg/mL) | Ethanol production compared to the control strains (strain P11 [4]): increase of ethanol production | Acetate (strain P11 [4]; P11 with 15 mM FA): 48.72 mM | Ethanol (strain P11 [4]; P11 with 15 mM FA): 39.62 mM | Final OD 600 (strain P11 [4]; P11 with 15 mM FA): 0.741 | Concentration shown to inhibit growth (thermophilic clostridium): 50 mM

[Mo] [Mo, molybdenum]
Acetate production on elimination of the metal (strain P11 [1]): increased acetate production | CO metabolism on elimination of the metal (strain P11 [1]): CO metabolism increased slightly | CO metabolism at increased level of the metal (strain P11 [1]): stimulated CO metabolism

[Ni] [Ni, nickel]
CO metabolism on elimination of the metal (strain P11 [1]): limited CO metabolism | Increase in solvent to acid ratio on elimination of the metal (strain P11 [1]): ~400% | CO metabolism at increased level of the metal (strain P11 [1]): stimulated CO metabolism

O=C(O)C(F)(F)F [TFA, trifluoroacetate]
Growth yield (strain P11 [4]; COM containing 30 mM TFA): remained unchanged | Increase in acetate produced (strain P11 [4]; COM containing 30 mM TFA): 52% | Increase in ethanol produced (strain P11 [4]; COM containing 30 mM TFA): 126% | Increase of solvent to acid ratio (strain P11 [4]; COM containing 30 mM TFA): 50% | Ethanol production compared to the control strains (strain P11 [4]): increase of ethanol production | Acetate (strain P11 [4]; P11 with 60 mM TFA): 34.58 mM | Ethanol (strain P11 [4]; P11 with 60 mM TFA): 45.60 mM | Final OD 600 (strain P11 [4]; P11 with 60 mM TFA): 0.641 | MIC (minimum inhibitory concentration) (strain P11 [4]; strain P11 in COM, CO substrate): 150 mM

Inulin
Substrate utilization, C. ragsdalei [2]: − | Substrate utilization, C. ljungdahlii [5]: −

Iron [Fe]
CO metabolism on elimination of the metal (strain P11 [1]): limited CO metabolism | Increase in solvent to acid ratio on elimination of the metal (strain P11 [1]): ~300% | CO metabolism at increased level of the metal (strain P11 [1]): stimulated CO metabolism | Concentration of ethanol produced (strain P11 [1]; [6]): doubles the concentration of ethanol produced | Production of acetic acid (strain P11 [1]; [6]): decreasing the production of acetic acid

Pectin
Substrate utilization, C. ragsdalei [2]: − | Substrate utilization, C. ljungdahlii [5]: −

Starch
Substrate utilization, C. ragsdalei [2]: − | Substrate utilization, C. ljungdahlii [5]: −

Trimethoxybenzoic acid
Substrate utilization, C. ragsdalei [2]: − | Substrate utilization, C. ljungdahlii [5]: −
